# Tests used:
# [1] = roseburia intestinalis, 12 h, 2 µM
# Description: The drug is tested on Roseburia intestinalis strain: L1-82 for biotransformation. The drug concentrations were measured before and after a 12-h incubation by liquid-chromatography-coupled mass spectrometry (LC–MS)
# [2] = The drug is tested on Bifidobacterium breve strain: DSM20213 for biotransformation. The drug concentrations were measured before and after a 12-h incubation by liquid-chromatography-coupled mass spectrometry (LC–MS); conditions: 2 µM
# [3] = The drug is tested on Providencia rettgeri strain: DSM1131 for biotransformation. The drug concentrations were measured before and after a 12-h incubation by liquid-chromatography-coupled mass spectrometry (LC–MS); format: ADME; design: dose 2 uM, timepoint 0 vs 12 hours; conditions: 2 µM
# [4] = The drug is tested on Bacteroides fragilis strain: HMW610 for biotransformation. The drug concentrations were measured before and after a 12-h incubation by liquid-chromatography-coupled mass spectrometry (LC–MS); conditions: 2 µM
# [5] = The drug is tested on Bacteroides coprophilus strain: DSM18228 for biotransformation. The drug concentrations were measured before and after a 12-h incubation by liquid-chromatography-coupled mass spectrometry (LC–MS); conditions: 2 µM
# [6] = The drug is tested on Clostridium ramosum strain: DSM1402 for biotransformation. The drug concentrations were measured before and after a 12-h incubation by liquid-chromatography-coupled mass spectrometry (LC–MS); conditions: thomasclavelia ramosa, 2 µM
# [7] = The drug is tested on Coprococcus comes strain: ATCC27758 for biotransformation. The drug concentrations were measured before and after a 12-h incubation by liquid-chromatography-coupled mass spectrometry (LC–MS); format: ADME; design: dose 2 uM, timepoint 0 vs 12 hours; conditions: 2 µM
# [8] = The drug is tested on Bacteroides fragilis strain: HMW615 for biotransformation. The drug concentrations were measured before and after a 12-h incubation by liquid-chromatography-coupled mass spectrometry (LC–MS); conditions: 2 µM
# [9] = bacteroides thetaiotaomicron, 12 h, 2 µM
# Description: The drug is tested on Bacteroides thetaiotaomicron strain: 7330 for biotransformation. The drug concentrations were measured before and after a 12-h incubation by liquid-chromatography-coupled mass spectrometry (LC–MS)
# [10] = limosilactobacillus reuteri cf48-3a, 12 h, 2 µM
# Description: The drug is tested on Lactobacillus reuteri CF48-3A strain: BEI HM-102 for biotransformation. The drug concentrations were measured before and after a 12-h incubation by liquid-chromatography-coupled mass spectrometry (LC–MS)
# [11] = The drug is tested on Anaerotruncus colihominis strain: DSM17241 for biotransformation. The drug concentrations were measured before and after a 12-h incubation by liquid-chromatography-coupled mass spectrometry (LC–MS); conditions: 2 µM
# [12] = The drug is tested on Clostridium scindens strain: ATCC35704 for biotransformation. The drug concentrations were measured before and after a 12-h incubation by liquid-chromatography-coupled mass spectrometry (LC–MS); conditions: 2 µM
# [13] = bacteroides intestinalis, 12 h, 2 µM
# Description: The drug is tested on Bacteroides intestinalis strain: DSM17393 for biotransformation. The drug concentrations were measured before and after a 12-h incubation by liquid-chromatography-coupled mass spectrometry (LC–MS)
# [14] = The drug is tested on Parabacteroides merdae strain: ATCC43184 for biotransformation. The drug concentrations were measured before and after a 12-h incubation by liquid-chromatography-coupled mass spectrometry (LC–MS); conditions: 2 µM
# [15] = The drug is tested on Clostridium sporogenes strain: ATCC15579 for biotransformation. The drug concentrations were measured before and after a 12-h incubation by liquid-chromatography-coupled mass spectrometry (LC–MS); conditions: 2 µM
# [16] = bacteroides thetaiotaomicron, 12 h, 2 µM; remark: listed apart in the source
# Description: The drug is tested on Bacteroides thetaiotaomicron strain: 3731 for biotransformation. The drug concentrations were measured before and after a 12-h incubation by liquid-chromatography-coupled mass spectrometry (LC–MS)
# [17] = The drug is tested on Bacteroides xylanisolvens strain: DSM18836 for biotransformation. The drug concentrations were measured before and after a 12-h incubation by liquid-chromatography-coupled mass spectrometry (LC–MS); conditions: 2 µM
# [18] = The drug is tested on Blautia hansenii strain: DSM20583 for biotransformation. The drug concentrations were measured before and after a 12-h incubation by liquid-chromatography-coupled mass spectrometry (LC–MS); conditions: 2 µM
# [19] = The drug is tested on Bacteroides uniformis strain: ATCC8492 for biotransformation. The drug concentrations were measured before and after a 12-h incubation by liquid-chromatography-coupled mass spectrometry (LC–MS); conditions: 2 µM
# [20] = The drug is tested on Enterococcus faecalis strain: V583 for biotransformation. The drug concentrations were measured before and after a 12-h incubation by liquid-chromatography-coupled mass spectrometry (LC–MS); conditions: 2 µM
Compound,Bacterial Biotransformation [1],Bacterial Biotransformation [2],Bacterial Biotransformation [3],Bacterial Biotransformation [4],Bacterial Biotransformation [5],Bacterial Biotransformation [6],Bacterial Biotransformation [7],Bacterial Biotransformation [8],Bacterial Biotransformation [9],Bacterial Biotransformation [10],Bacterial Biotransformation [11],Bacterial Biotransformation [12],Bacterial Biotransformation [13],Bacterial Biotransformation [14],Bacterial Biotransformation [15],Bacterial Biotransformation [16],Bacterial Biotransformation [17],Bacterial Biotransformation [18],Bacterial Biotransformation [19],Bacterial Biotransformation [20]
CS(=O)(=O)O.OC(CCN1CCCCC1)(c1ccccc1)c1ccccc1 [PRIDINOL METHANESULFONATE],Compound NOT metabolized,Compound NOT metabolized,Compound NOT metabolized,Compound NOT metabolized,Compound NOT metabolized,Compound NOT metabolized,Compound NOT metabolized,Compound NOT metabolized,Compound NOT metabolized,Compound NOT metabolized,Compound NOT metabolized,Compound NOT metabolized,Compound NOT metabolized,Compound NOT metabolized,Compound NOT metabolized,Compound NOT metabolized,Compound NOT metabolized,–,–,–
OC(CCN1CCCCC1)(c1ccccc1)C1CCCCC1 (stereo unspecified) [TRIHEXYPHENIDYL],–,Compound NOT metabolized,–,Compound NOT metabolized,–,–,Compound NOT metabolized,–,–,Compound NOT metabolized,Compound NOT metabolized,Compound NOT metabolized,Compound NOT metabolized,–,–,–,Compound NOT metabolized,Compound metabolized,Compound metabolized,Compound NOT metabolized
CCCN(CCC)CCc1cccc2c1CC(=O)N2 [ROPINIROLE],Compound NOT metabolized,Compound NOT metabolized,Compound NOT metabolized,Compound NOT metabolized,–,Compound NOT metabolized,Compound NOT metabolized,Compound NOT metabolized,Compound NOT metabolized,Compound NOT metabolized,Compound NOT metabolized,Compound NOT metabolized,Compound NOT metabolized,Compound NOT metabolized,Compound NOT metabolized,–,Compound NOT metabolized,–,Compound NOT metabolized,Compound NOT metabolized
CC(C)(C)NC[C@H](O)COc1nsnc1N1CCOCC1.O=C(O)/C=C\C(=O)O [TIMOLOL MALEATE],Compound NOT metabolized,Compound NOT metabolized,Compound NOT metabolized,–,Compound NOT metabolized,–,Compound NOT metabolized,–,–,Compound NOT metabolized,Compound NOT metabolized,Compound NOT metabolized,Compound NOT metabolized,Compound NOT metabolized,Compound NOT metabolized,Compound NOT metabolized,Compound NOT metabolized,Compound NOT metabolized,Compound NOT metabolized,Compound NOT metabolized
CN(CCOc1ccc(CC2SC(=O)NC2=O)cc1)c1ccccn1.O=C(O)/C=C\C(=O)O (stereo unspecified) [ROSIGLITAZONE MALEATE],Compound NOT metabolized,Compound NOT metabolized,Compound NOT metabolized,–,Compound NOT metabolized,–,Compound NOT metabolized,–,Compound NOT metabolized,Compound NOT metabolized,Compound NOT metabolized,Compound NOT metabolized,Compound NOT metabolized,Compound NOT metabolized,Compound NOT metabolized,Compound NOT metabolized,Compound NOT metabolized,Compound NOT metabolized,Compound NOT metabolized,Compound NOT metabolized
Cc1cn([C@H]2C[C@H](N=[N+]=[N-])[C@@H](CO)O2)c(=O)[nH]c1=O [ZIDOVUDINE],Compound metabolized,Compound NOT metabolized,Compound NOT metabolized,Compound NOT metabolized,Compound NOT metabolized,Compound NOT metabolized,Compound metabolized,Compound NOT metabolized,Compound NOT metabolized,Compound NOT metabolized,–,Compound NOT metabolized,Compound NOT metabolized,Compound NOT metabolized,Compound metabolized,Compound NOT metabolized,Compound metabolized,–,–,Compound NOT metabolized
COc1ccc(C(CN(C)C)C2(O)CCCCC2)cc1 (stereo unspecified) [VENLAFAXINE],Compound NOT metabolized,Compound NOT metabolized,Compound NOT metabolized,Compound NOT metabolized,Compound NOT metabolized,Compound NOT metabolized,–,Compound NOT metabolized,Compound NOT metabolized,Compound NOT metabolized,Compound NOT metabolized,Compound NOT metabolized,Compound NOT metabolized,Compound NOT metabolized,Compound NOT metabolized,Compound NOT metabolized,Compound NOT metabolized,–,Compound NOT metabolized,Compound NOT metabolized
O=C1N=C([O-])NC1(c1ccccc1)c1ccccc1.[Na+] [PHENYTOIN SODIUM],Compound NOT metabolized,Compound NOT metabolized,Compound NOT metabolized,Compound NOT metabolized,Compound metabolized,Compound NOT metabolized,Compound NOT metabolized,Compound NOT metabolized,–,Compound NOT metabolized,Compound NOT metabolized,Compound NOT metabolized,Compound NOT metabolized,Compound metabolized,Compound metabolized,Compound NOT metabolized,Compound NOT metabolized,–,Compound metabolized,Compound NOT metabolized
